Data as given in patent publication US20230183703A1, “COMPOSITIONS AND METHODS FOR TREATING AND DETECTING CORONAVIRUS INFECTION” (HOWARD UNIVERSITY, priority 2020, published 2023).

Test system: SARS-CoV-2
Assay type: cell-based
Conditions: result in words

Substance | inhibition of SARS-CoV-2 proliferation in Vero-76 cells
A25: 5′-GGAGAATGACA(25)-3′, SEQ ID NO: 1: 10-nucleotide linker attached to 5′-end of a 25-mer poly(dA) sequence (DNA GGAGAATGACAAAAAAAAAAAAAAAAAAAAAAAAA; further chemistry not given here) | markedly inhibited
A25L: SEQ ID NO: 2: 10-nucleotide linker GGAGAATGAC sandwiched between two copies of a 25-mer poly(dA) sequence (DNA AAAAAAAAAAAAAAAAAAAAAAAAAGGAGAATGACAAAAAAAAAAAAAAAAAAAAAAAAA; further chemistry not given here) | markedly inhibited
